According to patent US20230295119A1, “SUBSTITUTED PYRIDINES FOR THE TREATMENT OF INFLAMMATORY DISEASES” (GOSSAMER BIO SERVICES, INC., priority 2020, published 2023):

Columns and labels:
TYK2 JH2 domain = TYK2 JH2 domain (Homo sapiens (Human), UniProt P29597); assay: TYK2 JH2 NanoBRET assay; assay type: binding; details: Table 20, read-out: TYK2 IC50
Procedure, shortened: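 Tracer displacement measured by BRET ratio (acceptor over donor) in live HEK293T cells transfected with a NanoLuc-tagged TYK2 JH2 construct; cells co-exposed to test compound and 0.5 µM final K10 tracer for 2 h before substrate/extracellular inhibitor addition.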

human JAK1 = human JAK1 (Homo sapiens (Human), UniProt P23458); assay: JAK1 TR-FRET kinase assay; assay type: biochemical; details: TR-FRET, JAK1 2.5 nM
human JAK2 = human JAK2 (Homo sapiens (Human), UniProt O60674); assay: JAK2 TR-FRET kinase assay; assay type: biochemical; details: JAK2 0.025 nM
human JAK3 = human JAK3 (Homo sapiens (Human), UniProt P52333); assay: JAK3 TR-FRET kinase assay; assay type: biochemical; details: JAK3 0.0125 nM
Chain of human JAK3 (P52333 whole entry): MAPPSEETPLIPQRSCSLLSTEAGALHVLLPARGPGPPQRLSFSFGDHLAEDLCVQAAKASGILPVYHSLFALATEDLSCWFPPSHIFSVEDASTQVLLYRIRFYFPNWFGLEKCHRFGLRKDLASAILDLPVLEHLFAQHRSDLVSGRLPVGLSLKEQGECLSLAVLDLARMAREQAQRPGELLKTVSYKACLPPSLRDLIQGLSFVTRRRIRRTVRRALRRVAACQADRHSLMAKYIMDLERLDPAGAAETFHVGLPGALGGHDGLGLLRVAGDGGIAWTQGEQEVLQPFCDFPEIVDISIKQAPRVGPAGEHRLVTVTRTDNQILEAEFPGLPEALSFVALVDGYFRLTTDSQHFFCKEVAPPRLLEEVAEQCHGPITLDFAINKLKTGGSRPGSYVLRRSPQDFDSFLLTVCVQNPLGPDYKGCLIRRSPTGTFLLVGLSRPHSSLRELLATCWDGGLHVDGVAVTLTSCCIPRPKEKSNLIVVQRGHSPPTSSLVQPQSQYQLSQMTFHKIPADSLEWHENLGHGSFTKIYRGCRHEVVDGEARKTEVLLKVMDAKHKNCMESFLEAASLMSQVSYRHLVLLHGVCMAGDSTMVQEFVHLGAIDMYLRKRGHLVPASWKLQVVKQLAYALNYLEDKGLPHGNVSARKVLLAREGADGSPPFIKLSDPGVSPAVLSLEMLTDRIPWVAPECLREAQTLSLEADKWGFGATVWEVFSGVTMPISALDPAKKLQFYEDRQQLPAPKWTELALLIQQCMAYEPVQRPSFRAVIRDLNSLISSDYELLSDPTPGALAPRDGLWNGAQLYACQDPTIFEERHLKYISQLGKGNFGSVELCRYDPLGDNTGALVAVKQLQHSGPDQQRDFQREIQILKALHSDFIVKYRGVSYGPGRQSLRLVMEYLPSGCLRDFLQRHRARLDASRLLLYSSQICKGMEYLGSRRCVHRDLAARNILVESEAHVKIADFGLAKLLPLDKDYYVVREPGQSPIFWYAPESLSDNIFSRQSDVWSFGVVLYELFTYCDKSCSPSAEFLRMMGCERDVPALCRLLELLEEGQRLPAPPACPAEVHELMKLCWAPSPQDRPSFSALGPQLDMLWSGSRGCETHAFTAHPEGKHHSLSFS

Chain of TYK2 JH2 domain (P29597 589-875): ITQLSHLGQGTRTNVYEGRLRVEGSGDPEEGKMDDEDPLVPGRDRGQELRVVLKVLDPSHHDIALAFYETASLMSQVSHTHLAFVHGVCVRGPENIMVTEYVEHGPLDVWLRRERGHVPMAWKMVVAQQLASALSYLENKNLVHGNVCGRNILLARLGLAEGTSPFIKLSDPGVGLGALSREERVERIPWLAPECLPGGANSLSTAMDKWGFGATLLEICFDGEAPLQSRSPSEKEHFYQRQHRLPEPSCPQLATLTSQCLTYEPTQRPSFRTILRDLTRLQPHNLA
Chain of human JAK2 (O60674 whole entry): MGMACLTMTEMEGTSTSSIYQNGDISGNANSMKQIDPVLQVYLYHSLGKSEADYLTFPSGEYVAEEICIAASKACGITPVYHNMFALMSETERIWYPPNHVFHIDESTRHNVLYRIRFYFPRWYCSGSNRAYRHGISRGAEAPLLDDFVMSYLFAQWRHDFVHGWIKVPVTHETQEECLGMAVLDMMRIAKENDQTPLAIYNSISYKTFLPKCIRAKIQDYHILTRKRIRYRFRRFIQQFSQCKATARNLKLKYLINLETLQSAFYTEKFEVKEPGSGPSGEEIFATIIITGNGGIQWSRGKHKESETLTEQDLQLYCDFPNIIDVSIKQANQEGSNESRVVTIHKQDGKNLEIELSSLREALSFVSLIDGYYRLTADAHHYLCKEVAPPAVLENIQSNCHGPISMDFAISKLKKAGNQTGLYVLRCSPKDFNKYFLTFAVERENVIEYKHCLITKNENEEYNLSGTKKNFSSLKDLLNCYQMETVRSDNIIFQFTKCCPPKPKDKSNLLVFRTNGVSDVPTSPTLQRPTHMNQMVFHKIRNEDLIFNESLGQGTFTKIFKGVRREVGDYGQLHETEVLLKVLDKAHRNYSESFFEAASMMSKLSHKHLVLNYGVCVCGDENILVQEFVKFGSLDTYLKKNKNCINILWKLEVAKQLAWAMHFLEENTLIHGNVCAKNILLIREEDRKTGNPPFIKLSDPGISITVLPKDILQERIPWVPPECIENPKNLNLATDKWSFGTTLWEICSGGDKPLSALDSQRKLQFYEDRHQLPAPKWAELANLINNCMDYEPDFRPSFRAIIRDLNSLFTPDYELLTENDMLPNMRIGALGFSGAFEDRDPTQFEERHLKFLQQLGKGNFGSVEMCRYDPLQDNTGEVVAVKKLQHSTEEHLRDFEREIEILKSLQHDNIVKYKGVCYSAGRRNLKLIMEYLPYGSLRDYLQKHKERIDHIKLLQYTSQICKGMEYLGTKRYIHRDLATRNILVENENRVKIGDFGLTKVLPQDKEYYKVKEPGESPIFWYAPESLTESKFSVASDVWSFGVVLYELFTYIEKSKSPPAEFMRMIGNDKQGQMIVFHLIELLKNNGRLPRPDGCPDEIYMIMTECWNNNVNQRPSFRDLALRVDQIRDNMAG
Chain of human JAK1 (P23458 whole entry): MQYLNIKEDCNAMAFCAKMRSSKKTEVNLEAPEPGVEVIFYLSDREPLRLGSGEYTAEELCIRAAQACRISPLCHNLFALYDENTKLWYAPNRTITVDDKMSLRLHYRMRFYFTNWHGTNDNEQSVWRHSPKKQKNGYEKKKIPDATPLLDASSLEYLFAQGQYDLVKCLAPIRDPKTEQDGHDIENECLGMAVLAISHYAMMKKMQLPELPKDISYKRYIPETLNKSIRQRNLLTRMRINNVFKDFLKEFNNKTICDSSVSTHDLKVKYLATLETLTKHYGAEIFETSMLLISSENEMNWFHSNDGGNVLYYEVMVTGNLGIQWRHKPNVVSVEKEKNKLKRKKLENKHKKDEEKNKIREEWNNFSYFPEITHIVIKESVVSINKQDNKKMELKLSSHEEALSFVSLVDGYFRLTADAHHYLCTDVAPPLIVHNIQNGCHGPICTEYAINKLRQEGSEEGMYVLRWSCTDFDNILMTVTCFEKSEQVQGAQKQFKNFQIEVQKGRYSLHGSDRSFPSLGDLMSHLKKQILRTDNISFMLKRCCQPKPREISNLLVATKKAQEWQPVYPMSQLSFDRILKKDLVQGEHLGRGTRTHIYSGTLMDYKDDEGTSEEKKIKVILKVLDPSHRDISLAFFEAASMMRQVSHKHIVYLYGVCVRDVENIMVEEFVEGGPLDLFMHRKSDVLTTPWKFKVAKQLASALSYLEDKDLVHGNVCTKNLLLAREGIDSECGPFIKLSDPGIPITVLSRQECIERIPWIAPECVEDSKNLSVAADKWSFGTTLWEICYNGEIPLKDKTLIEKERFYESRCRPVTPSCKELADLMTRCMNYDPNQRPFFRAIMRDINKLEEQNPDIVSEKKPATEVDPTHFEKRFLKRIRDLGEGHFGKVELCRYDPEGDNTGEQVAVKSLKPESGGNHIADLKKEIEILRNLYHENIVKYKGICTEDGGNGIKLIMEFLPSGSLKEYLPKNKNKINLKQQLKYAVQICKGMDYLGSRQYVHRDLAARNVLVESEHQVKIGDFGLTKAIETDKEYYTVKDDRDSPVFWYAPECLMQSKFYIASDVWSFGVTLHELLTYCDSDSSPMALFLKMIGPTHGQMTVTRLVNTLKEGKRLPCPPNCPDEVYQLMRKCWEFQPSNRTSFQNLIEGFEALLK

SMILES	IC50 (TYK2 JH2 domain)	IC50 (human JAK1)	IC50 (human JAK2)	IC50 (human JAK3)
CCC(=O)c1cnc(NC(=O)C2CC2)cc1Nc1cc(F)cc(-c2ncn(CCO)n2)c1OC [Compound 25F]	50 to 500 nM	≥ 500 nM	≥ 500 nM	≥ 500 nM
CCC(=O)c1cnc(Nc2ccc(CN3CC(F)C3)cn2)cc1Nc1cccc(-c2ncn(C)n2)c1OC [Compound 9EE]	< 5 nM	≥ 500 nM	≥ 500 nM	50 to 500 nM
CCC(=O)c1cnc(Nc2ccc([C@@H](C)N(C)C)cn2)cc1Nc1cccc(-c2ncn(C)n2)c1OC [Compound 9J]	< 5 nM	≥ 500 nM	≥ 500 nM	≥ 500 nM
CCC(=O)c1cnc(Nc2cc(CN3CCCC3)ccn2)cc1Nc1cccc(-c2ncn(C)n2)c1OC [Compound 9IIII]	< 5 nM	≥ 500 nM	50 to 500 nM	50 to 500 nM
CCC(=O)c1cnc(Nc2cnc(O[C@H]3CCCN(C)C3)cn2)cc1Nc1cccc(-c2ncn(C)n2)c1OC [Compound 18QQQ]	5 to 50 nM	≥ 500 nM	≥ 500 nM	≥ 500 nM
CCC(=O)c1cnc(Nc2cnc(OCCn3cnc(C)c3)cn2)cc1Nc1cccc(-c2ncn(C)n2)c1OC [Compound 18HHH]	5 to 50 nM	≥ 500 nM	≥ 500 nM	≥ 500 nM
CCC(=O)c1cnc(Nc2ccn(-c3ccccn3)n2)cc1Nc1cccc(-c2ncn(C)n2)c1OC [Compound 21E]	< 5 nM	≥ 500 nM	≥ 500 nM	≥ 500 nM
CCC(=O)c1cnc(NC(=O)[C@@H]2C[C@@H]2C(N)=O)cc1Nc1cccc(-c2ncn(C)n2)c1OC [Compound 22G]	≥ 500 nM	≥ 500 nM	≥ 500 nM	≥ 500 nM
CCC(=O)c1cnc(Nc2cc(C(C)N(C)C)ncn2)cc1Nc1cccc(-c2ncn(C)n2)c1OC (centres unmarked) [Compound 9QQQQ]	< 5 nM	≥ 500 nM	≥ 500 nM	≥ 500 nM
CCC(=O)c1cnc(Nc2cnc(C3(N)CC3)cn2)cc1Nc1cccc(-c2ncn(C)n2)c1OC [Compound 9YYY]	5 to 50 nM	≥ 500 nM	≥ 500 nM	≥ 500 nM
CCC(=O)c1cnc(Nc2ccc(C(=O)O)cn2)cc1Nc1cccc(-c2ncn(C)n2)c1OC [Compound 8B]	50 to 500 nM	≥ 500 nM	≥ 500 nM	≥ 500 nM
CCC(=O)c1cnc(Nc2ncc(OCC3COC3)cc2F)cc1Nc1cccc(-c2ncn(C)n2)c1OC [Compound 18CCCC]	50 to 500 nM	≥ 500 nM	≥ 500 nM	≥ 500 nM
CCC(=O)c1cnc(Nc2cc(OCCO)n(C)n2)cc1Nc1cccc(-c2ncn(C)n2)c1OC [Compound 21AA]	5 to 50 nM	≥ 500 nM	≥ 500 nM	50 to 500 nM
CCC(=O)c1cnc(NC(=O)C2CC2c2cnn(C)c2)cc1Nc1cccc(-c2ncn(C)n2)c1OC (centres unmarked) [Compound 22A, N-(4-((2-methoxy-3-(1-methyl-1H-1,2,4-tliazol-3-yl)phenyl)amino)-5-propionylpyridin-2-yl)-2-(1-methyl-1H-pyrazol-4-yl)cyclopropane-1-carboxamide]	5 to 50 nM	≥ 500 nM	≥ 500 nM	≥ 500 nM
CCC(=O)c1cnc(Nc2cc(C(=O)NC)ncn2)cc1Nc1cccc(-c2ncn(C)n2)c1OC [Compound 8N]	< 5 nM	≥ 500 nM	≥ 500 nM	≥ 500 nM
CCC(=O)c1cnc(Nc2ccc(CCN(C)C)nn2)cc1Nc1cccc(-c2ncn(C)n2)c1OC [Compound 11D]	5 to 50 nM	≥ 500 nM	≥ 500 nM	≥ 500 nM
CCC(=O)c1cnc(Nc2ncc(-n3ccccc3=O)cc2F)cc1Nc1cccc(-c2ncn(C)n2)c1OC [Compound 15AA]	50 to 500 nM	≥ 500 nM	≥ 500 nM	≥ 500 nM
CCC(=O)c1cnc(Nc2ccc(C(C)(C)N(C)C)cn2)cc1Nc1cccc(-c2ncn(C)n2)c1OC [Compound 9N]	< 5 nM	≥ 500 nM	≥ 500 nM	≥ 500 nM
CCC(=O)c1cnc(NC(=O)CCN2CCCC2)cc1Nc1cccc(-c2ncn(C)n2)c1OC [Compound 23D]	50 to 500 nM	≥ 500 nM	≥ 500 nM	≥ 500 nM

Results, then the molecule that gave them:

IC50 (TYK2 JH2 domain)	IC50 (human JAK1)	IC50 (human JAK2)	IC50 (human JAK3)	SMILES
< 5 nM	≥ 500 nM	≥ 500 nM	≥ 500 nM	CCC(=O)c1cnc(Nc2cc(CN)ncn2)cc1Nc1cccc(-c2ncn(C)n2)c1OC [Compound 9LLLL]
< 5 nM	≥ 500 nM	≥ 500 nM	≥ 500 nM	CCC(=O)c1cnc(Nc2ccc(S(=O)(=O)N3CCOCC3)cn2)cc1Nc1cccc(-c2ncn(C)n2)c1OC [Compound 13E]
< 5 nM	≥ 500 nM	≥ 500 nM	≥ 500 nM	CCC(=O)c1cnc(Nc2ccn(-c3ccccc3)c(=O)n2)cc1Nc1cccc(-c2ncn(C)n2)c1OC [Compound 20A, 4-((4-((2-methoxy-3-(1-methyl-1H-1,2,4-triazol-3-yl)phenyl)amino)-5-propionylpyridin-2-yl)amino)-1-phenylpyrimidin-2(1H)-one]
< 5 nM	≥ 500 nM	≥ 500 nM	≥ 500 nM	CCC(=O)c1cnc(Nc2cccc(C(=O)NC)n2)cc1Nc1cccc(-c2ncn(C)n2)c1OC [Compound 8K]
< 5 nM	≥ 500 nM	≥ 500 nM	≥ 500 nM	CCC(=O)c1cnc(Nc2ccnc(OCCCN(C)C)n2)cc1Nc1cccc(-c2ncn(C)n2)c1OC [Compound 18HH]
5 to 50 nM	≥ 500 nM	≥ 500 nM	≥ 500 nM	CCC(=O)c1cnc(Nc2cnc(O[C@@H]3CCCN(C)C3)cn2)cc1Nc1cccc(-c2ncn(C)n2)c1OC [Compound 18PPP]
5 to 50 nM	≥ 500 nM	≥ 500 nM	≥ 500 nM	CCC(=O)c1cnc(Nc2ccc(CNC)nn2)cc1Nc1cccc(-c2ncn(C)n2)c1OC [Compound 9GGG]
50 to 500 nM	≥ 500 nM	≥ 500 nM	≥ 500 nM	CCC(=O)c1cnc(Nc2cnc(CCNC)cn2)cc1Nc1cccc(-c2ncn(C)n2)c1OC [Compound 11H]
5 to 50 nM	≥ 500 nM	≥ 500 nM	≥ 500 nM	CCC(=O)c1cnc(Nc2nccc(CN(C)C)c2F)cc1Nc1cccc(-c2ncn(C)n2)c1OC [Compound 9TTTT]
50 to 500 nM	≥ 500 nM	≥ 500 nM	≥ 500 nM	CCC(=O)c1cnc(NC(=O)C2CC2)cc1Nc1cc(COC)cc(-c2ncn(C)n2)c1OC [Compound 25E]
5 to 50 nM	≥ 500 nM	≥ 500 nM	≥ 500 nM	CCC(=O)c1cnc(Nc2ccc(C(C)NC)nn2)cc1Nc1cccc(-c2ncn(C)n2)c1OC (centres unmarked) [Compound 9JJJ]
< 5 nM	≥ 500 nM	≥ 500 nM	≥ 500 nM	CCC(=O)c1cnc(Nc2cc(C(=O)NC)ccn2)cc1Nc1cccc(-c2ncn(C)n2)c1OC [Compound 8G]
50 to 500 nM	≥ 500 nM	≥ 500 nM	≥ 500 nM	CCC(=O)c1cnc(NC(=O)C2CC2c2ccccn2)cc1Nc1cccc(-c2ncn(C)n2)c1OC (centres unmarked) [Compound 22B]
